{
  "source": "patent US20070027116A1",
  "about": "“Therapeutic phosphonate derivatives” (priority 2003, published 2007)",
  "origin": "cited, not measured here",
  "conditions": "after oral or intravenous administration; background statement",
  "data": [
    {"smiles": "COc1c(C)c2c(c(O)c1C/C=C(\\C)CCC(=O)OCCN1CCOCC1)C(=O)OC2", "note": "[Mycophenolate mofetil]", "values": [
      {"measurement": "drug cleared by glucuronidation and excreted in the urine", "value": "over 90%"}
    ]}
  ]
}
